Consider one molecule from patent US11173140B2, “Dosing regimens of PKC activators” (COGNITIVE RESEARCH ENTERPRISES, INC., priority 2015, dated 2021).

In this assay the target is T1, PKC-ε (Homo sapiens, UniProt Q02156).
T1 construct: from tissue; host or cells: blood of a human advanced Alzheimer's disease patient
T1 sequence (Q02156 1-737): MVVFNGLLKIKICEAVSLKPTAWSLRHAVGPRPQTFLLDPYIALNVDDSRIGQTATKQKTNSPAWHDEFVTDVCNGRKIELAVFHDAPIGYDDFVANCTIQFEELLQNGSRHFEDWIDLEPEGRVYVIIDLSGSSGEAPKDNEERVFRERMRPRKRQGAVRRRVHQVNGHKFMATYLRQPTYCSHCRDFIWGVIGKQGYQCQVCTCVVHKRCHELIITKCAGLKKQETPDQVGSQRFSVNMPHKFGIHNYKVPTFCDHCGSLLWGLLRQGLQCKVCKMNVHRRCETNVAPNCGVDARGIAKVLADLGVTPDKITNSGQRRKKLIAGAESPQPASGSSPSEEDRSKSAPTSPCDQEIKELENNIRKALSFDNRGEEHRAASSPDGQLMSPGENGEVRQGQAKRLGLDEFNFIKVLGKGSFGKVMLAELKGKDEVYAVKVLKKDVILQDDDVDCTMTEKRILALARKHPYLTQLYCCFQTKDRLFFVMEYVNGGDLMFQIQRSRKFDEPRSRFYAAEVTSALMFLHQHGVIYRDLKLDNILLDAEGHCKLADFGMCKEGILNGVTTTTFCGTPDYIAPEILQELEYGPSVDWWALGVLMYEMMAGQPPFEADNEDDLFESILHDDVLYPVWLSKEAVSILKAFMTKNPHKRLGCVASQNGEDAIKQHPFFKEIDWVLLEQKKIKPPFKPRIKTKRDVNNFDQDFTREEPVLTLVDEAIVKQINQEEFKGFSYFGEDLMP
As to the kind of experiment: Compassionate use study: PKC-ε level in blood. Conditions: advanced AD patient blood, weekly dose of 25 μg/m^2, three consecutive weeks. Type of assay: in vivo. As for the experimental part: FIG. 1 illustrates, inter alia, the level of PKCε in the blood of a human subject receiving 25 μg/m^2 of bryostatin as a single weekly dose for three consecutive weeks followed by cessation of dosing for one week and then two additional weeks of dosing at 25 μg/m^2.
FIG. 1 illustrates early results of a compassionate use (CU) study involving human advanced AD patients. […] The administration comprised three consecutive weeks of dosing followed by cessation for one week and then two additional weeks of dosing. Standard psychometric tests were used to measure cognitive functions and behaviors. The study also evaluated the relationship between the level of bryostatin's target, PKC epsilon, in the blood and the cognitive measurements.
Observed improvements included restored speech and word recognition, restored swallowing, lowered or prevented hallucinations, and improved complex motor functions. […] For example, the observed behavioral improvements included restoration of speech and word recognition, restoration of swallowing, disappearance of hallucinations, return of complex motor activity, including swimming, billiards, conversational interactions, and orientation in time and space.

Take `CCC/C=C/C=C/C(=O)O[C@H]1/C(=C/C(=O)OC)C[C@H]2C[C@H]([C@@H](C)O)OC(=O)C[C@H](O)C[C@@H]3C[C@H](OC(C)=O)C(C)(C)[C@](O)(C[C@@H]4C/C(=C/C(=O)OC)C[C@H](/C=C/C(C)(C)[C@]1(O)O2)O4)O3` [Bryostatin-1]: the “total PKC-ε levels” value is reported as “increased”.
